Counter-ions that a name gives are not always drawn.
Key:
[1] = target: T1, BTK (Homo sapiens, UniProt Q06187); test: Tyrosine kinase assay (Kinase Selectivity System TK-2, ADP-Glo); format: biochemical; details: 1 h incubation, mean ± SD of four experiments
T1 construct: purchased Promega

[2] = target: T2, CSK (Homo sapiens, UniProt P41240); test: as above; format: biochemical; details: 1 h incubation, mean ± SD of four experiments
T2 construct: purchased Promega

[3] = target: T3, BRK (Homo sapiens, UniProt Q13882); test: as above; format: biochemical; details: 1 h incubation, mean ± SD of four experiments
T3 construct: purchased Promega

[4] = target: T4, Lyn B (Homo sapiens, UniProt P07948); test: as above; format: biochemical; details: 1 h incubation, mean ± SD of four experiments
T4 construct: purchased Promega

[5] = target: T5, Src (Homo sapiens, UniProt P12931); test: as above; format: biochemical; details: 1 h incubation, mean ± SD of four experiments
T5 construct: purchased Promega

[6] = target: T6, Fyn A (Homo sapiens, UniProt P06241); test: as above; format: biochemical; details: 1 h incubation, mean ± SD of four experiments
T6 construct: purchased Promega
Excerpt: All newly synthesised derivatives were screened for their inhibitory potential towards eight non-receptor tyrosine kinases, such as ABL, BTK, BRK and Src family kinases, such as CSK, Lyn, Lck, Fyn and Src. […] To facilitate the analysis of the structure and enzymatic activity, all tested compounds were divided into four subgroups based on the main structural scaffolds (the general structure of each group is shown in the second column of Table 1). Series A, B, and C were subdivided according to the S^4-aryl substituent, while D represents the different styryl groups at the C^2-quinazoline position.
Herein, we used a kinase assay that contained fully expressed kinases with their regulatory domains, which are responsible for autoinhibition. The proteins are present in their unphosphorylated form and the procedure required supplementation with ATP. Importantly, autophosphorylation of ABL is dependent on […] concentration of the protein. Thus, our experimental conditions reflect the cellular process to be simulated. The luminescence signal detected after one hour of incubation with a peptide substrate was a measure of inhibition. Under these conditions, the question of whether the inhibitors tested bind to the ortho or allosteric site of the protein could be answered. […] To test this hypothesis, further molecular docking experiments were performed to more precisely determine the binding of the tested compounds to the ABL kinase.
To determine the inhibition of non-receptor tyrosine kinases, assays were performed using the kinase selectivity system TK-2 and the ADP-Glo Kinase Assay (both from Promega). The protocol was previously developed by our group and described in reports[12]^,[36]. Experiments were performed at least four times. Data are expressed as percentage of tyrosine kinase inhibitory activity after treatment with the derivatives tested.

[7] = system: HCT 116 p53−/−; test: Cytotoxicity studies (MTS), antiproliferative activity; format: cell-based, human; details: Homo sapiens, HCT-116; 72 h, MTS
Excerpt: (§1) In contrast, the other cell lines studied represent common cancers found in the human population. Nevertheless, these cell lines are characterised by a different landscape of kinase expression, as reported in[36]. In chronic leukaemia cells, an aberration of the Philadelphia chromosome is common in which a fragment of chromosome 9 is displaced to chromosome 22, leading to the formation of the oncogenic protein BCR-ABL. The altered structure of the protein leads to abnormal activity that promotes excessive growth and differentiation of cells even in the absence of growth factors, as well as inhibition of apoptosis and formation of metastases. Moreover, the status of the TP53 gene in leukaemia is not insignificant. Mutations of the TP53 gene occur in more than 50% of all cancers, leading to increased metastasis and an overall poor prognosis[38]^,[39]. The p53 protein encoded by this gene plays a pivotal role in controlling cell division or cell fate when damage is detected. […] Therefore, interaction between the signalling network of the BCR-ABL pathway and p53 often results in an impairment of p53 function and survival[43]^,[44]. […] Selectivity studies were performed on normal human fibroblast – NHDF cell line.
(§2) M. Rusin from the Maria Sklodowska-Curie Memorial Cancer Centre and Institute of Oncology in Gliwice, Poland. […] G. Kramer-Marek from the Institute of Cancer Research in London, United Kingdom. The human suspension chronic myeloids leukaemia cell line K562 and the pancreatic ductal adenocarcinoma cell line PANC-1 were purchased from Merck. The normal human dermal fibroblasts cell line NHDF were obtained from PromoCell. All adherent cancer cell lines were cultured in Dulbecco’s Modified Eagle’s medium (DMEM) supplemented with 10% heat-inactivated foetal bovine serum – FBS (all from Merck). […] Each complete medium contained a mixture of two antibiotics - penicillin and streptomycin (1% v/v; Gibco). Cell lines were cultured at 37 °C with 5% CO2 humidified atmosphere.
(§3) The assay was carried out after 72 h of incubation with different concentrations of the tested compounds. Then DMEM without phenol red was added to each well with CellTiter 96®AQueous One Solution-MTS (Promega) solution and incubated for 1 h or 3 h (PANC-1) at 37 °C. The optical densities of the samples were measured at 490 nm using a multi-plate reader (Synergy 4, BioTek). […] Each compound was tested in triplicate in a single experiment and each experiment was performed three or four times.

[8] = system: MCF-7; test: as above; format: cell-based, human; details: Homo sapiens, MCF7; 72 h, MTS
Excerpt: as §1, §2, §3

[9] = system: A549; test: as above; format: cell-based, human; details: Homo sapiens, A549; 72 h, MTS
Excerpt: as §1, §2, §3

[10] = system: HCT 116 p53+/+; test: as above; format: cell-based, human; details: Homo sapiens, HCT-116; 72 h, MTS
Excerpt: as §1, §2, §3

[11] = system: K562; test: as above; format: cell-based, human; details: Homo sapiens, K562; 72 h, MTS
Excerpt: as §1, §2, §3

[12] = system: U-251; test: as above; format: cell-based, human; details: Homo sapiens, U-251; 72 h, MTS
Excerpt: as §1, §2, §3

[13] = target: T7, Lck (Homo sapiens, UniProt P06239); test: Tyrosine kinase assay (Kinase Selectivity System TK-2, ADP-Glo); format: biochemical; details: 1 h incubation, mean ± SD of four experiments
T7 construct: purchased Promega

[14] = target: T8, ABL (Homo sapiens, UniProt P00519); test: as above; format: biochemical; details: 1 h incubation, mean ± SD of four experiments
T8 construct: purchased Promega

[15] = system: NHDF; test: Cytotoxicity studies (MTS), normal fibroblasts; format: cell-based; details: 72 h, normal human fibroblasts, read-out: Antiproliferative activity IC50 NHDF
Excerpt: as §1, §2, §3

[16] = system: PANC-1; test: Cytotoxicity studies (MTS), antiproliferative activity; format: cell-based, human; details: Homo sapiens, PANC-1; 72 h, MTS
Excerpt: as §1, §2, §3

T8 sequence (P00519 whole entry): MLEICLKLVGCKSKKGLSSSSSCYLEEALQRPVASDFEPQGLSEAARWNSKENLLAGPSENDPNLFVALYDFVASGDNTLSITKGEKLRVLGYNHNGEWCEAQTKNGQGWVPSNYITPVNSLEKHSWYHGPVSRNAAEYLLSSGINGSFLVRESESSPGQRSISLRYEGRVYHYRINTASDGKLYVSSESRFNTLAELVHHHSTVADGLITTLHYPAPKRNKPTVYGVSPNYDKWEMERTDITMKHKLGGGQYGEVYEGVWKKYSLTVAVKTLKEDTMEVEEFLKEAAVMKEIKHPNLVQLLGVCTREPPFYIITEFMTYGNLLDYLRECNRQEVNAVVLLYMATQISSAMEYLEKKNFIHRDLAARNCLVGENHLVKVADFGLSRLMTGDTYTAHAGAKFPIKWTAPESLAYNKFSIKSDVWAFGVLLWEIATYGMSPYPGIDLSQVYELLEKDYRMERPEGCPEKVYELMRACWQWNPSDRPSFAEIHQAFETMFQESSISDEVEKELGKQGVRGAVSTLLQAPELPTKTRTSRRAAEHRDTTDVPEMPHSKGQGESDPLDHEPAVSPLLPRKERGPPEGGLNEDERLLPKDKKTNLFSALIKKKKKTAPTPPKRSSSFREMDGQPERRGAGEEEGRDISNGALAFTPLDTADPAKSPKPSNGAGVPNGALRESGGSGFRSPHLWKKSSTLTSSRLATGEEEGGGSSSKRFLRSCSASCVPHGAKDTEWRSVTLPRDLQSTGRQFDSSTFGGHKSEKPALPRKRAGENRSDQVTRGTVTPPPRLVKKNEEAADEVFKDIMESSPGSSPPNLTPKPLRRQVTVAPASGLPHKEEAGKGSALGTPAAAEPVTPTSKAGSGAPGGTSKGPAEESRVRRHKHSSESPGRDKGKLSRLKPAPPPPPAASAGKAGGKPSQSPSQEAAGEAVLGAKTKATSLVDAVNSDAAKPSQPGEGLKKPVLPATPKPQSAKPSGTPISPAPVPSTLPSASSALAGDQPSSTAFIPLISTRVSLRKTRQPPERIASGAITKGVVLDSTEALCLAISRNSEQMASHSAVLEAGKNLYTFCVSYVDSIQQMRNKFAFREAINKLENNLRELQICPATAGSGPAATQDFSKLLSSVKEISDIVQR
T3 sequence (Q13882 whole entry): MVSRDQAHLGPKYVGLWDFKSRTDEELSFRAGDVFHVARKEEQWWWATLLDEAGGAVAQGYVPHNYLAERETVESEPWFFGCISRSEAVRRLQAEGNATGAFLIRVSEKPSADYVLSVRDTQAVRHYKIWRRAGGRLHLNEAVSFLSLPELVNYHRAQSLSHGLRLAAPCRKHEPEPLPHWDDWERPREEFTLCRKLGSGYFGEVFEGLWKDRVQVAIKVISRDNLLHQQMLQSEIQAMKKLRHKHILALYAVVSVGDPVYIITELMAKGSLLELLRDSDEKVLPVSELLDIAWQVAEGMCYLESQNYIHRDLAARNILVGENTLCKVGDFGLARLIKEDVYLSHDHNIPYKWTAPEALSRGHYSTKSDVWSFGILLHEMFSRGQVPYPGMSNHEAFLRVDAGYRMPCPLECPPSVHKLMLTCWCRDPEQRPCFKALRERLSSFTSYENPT
T6 sequence (P06241 whole entry): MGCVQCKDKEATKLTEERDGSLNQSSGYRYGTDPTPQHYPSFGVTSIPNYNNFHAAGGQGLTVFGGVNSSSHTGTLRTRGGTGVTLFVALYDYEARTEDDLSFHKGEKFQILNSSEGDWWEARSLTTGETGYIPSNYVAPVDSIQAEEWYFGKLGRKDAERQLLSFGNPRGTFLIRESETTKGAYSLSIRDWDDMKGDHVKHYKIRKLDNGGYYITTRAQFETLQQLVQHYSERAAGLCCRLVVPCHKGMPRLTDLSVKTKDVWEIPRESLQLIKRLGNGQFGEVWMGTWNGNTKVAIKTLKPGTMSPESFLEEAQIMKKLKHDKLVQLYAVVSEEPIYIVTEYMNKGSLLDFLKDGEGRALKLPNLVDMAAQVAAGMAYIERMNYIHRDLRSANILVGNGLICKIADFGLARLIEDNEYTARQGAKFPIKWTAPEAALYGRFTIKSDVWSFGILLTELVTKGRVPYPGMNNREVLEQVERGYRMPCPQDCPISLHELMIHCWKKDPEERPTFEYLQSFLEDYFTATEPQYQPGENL
T7 sequence (P06239 whole entry): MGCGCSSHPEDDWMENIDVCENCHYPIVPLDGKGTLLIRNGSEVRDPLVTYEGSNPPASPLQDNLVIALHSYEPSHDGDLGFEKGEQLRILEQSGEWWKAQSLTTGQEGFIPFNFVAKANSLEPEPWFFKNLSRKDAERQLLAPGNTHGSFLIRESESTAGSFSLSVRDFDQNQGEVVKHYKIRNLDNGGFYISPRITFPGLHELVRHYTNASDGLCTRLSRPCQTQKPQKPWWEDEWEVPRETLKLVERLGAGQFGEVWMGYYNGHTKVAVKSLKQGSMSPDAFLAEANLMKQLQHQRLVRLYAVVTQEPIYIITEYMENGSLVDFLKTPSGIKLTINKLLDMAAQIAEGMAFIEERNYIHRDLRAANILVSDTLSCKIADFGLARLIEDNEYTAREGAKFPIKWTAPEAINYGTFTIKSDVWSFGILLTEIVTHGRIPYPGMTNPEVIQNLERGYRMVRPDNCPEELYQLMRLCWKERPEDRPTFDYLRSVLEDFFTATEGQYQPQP
T4 sequence (P07948 1-491 isoform P07948-2): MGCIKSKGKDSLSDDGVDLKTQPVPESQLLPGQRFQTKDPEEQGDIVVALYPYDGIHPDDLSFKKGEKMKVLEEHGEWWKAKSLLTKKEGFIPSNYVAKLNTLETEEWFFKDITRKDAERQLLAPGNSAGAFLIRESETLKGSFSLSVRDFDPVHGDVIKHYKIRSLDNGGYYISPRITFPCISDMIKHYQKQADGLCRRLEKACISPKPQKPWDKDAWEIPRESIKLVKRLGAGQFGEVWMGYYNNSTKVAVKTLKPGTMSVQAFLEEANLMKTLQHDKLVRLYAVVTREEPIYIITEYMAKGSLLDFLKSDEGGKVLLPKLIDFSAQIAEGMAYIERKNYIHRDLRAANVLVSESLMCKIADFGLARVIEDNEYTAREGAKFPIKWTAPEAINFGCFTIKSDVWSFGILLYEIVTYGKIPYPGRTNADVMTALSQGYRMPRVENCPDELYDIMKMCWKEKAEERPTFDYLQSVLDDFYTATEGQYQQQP
T1 sequence (Q06187 whole entry): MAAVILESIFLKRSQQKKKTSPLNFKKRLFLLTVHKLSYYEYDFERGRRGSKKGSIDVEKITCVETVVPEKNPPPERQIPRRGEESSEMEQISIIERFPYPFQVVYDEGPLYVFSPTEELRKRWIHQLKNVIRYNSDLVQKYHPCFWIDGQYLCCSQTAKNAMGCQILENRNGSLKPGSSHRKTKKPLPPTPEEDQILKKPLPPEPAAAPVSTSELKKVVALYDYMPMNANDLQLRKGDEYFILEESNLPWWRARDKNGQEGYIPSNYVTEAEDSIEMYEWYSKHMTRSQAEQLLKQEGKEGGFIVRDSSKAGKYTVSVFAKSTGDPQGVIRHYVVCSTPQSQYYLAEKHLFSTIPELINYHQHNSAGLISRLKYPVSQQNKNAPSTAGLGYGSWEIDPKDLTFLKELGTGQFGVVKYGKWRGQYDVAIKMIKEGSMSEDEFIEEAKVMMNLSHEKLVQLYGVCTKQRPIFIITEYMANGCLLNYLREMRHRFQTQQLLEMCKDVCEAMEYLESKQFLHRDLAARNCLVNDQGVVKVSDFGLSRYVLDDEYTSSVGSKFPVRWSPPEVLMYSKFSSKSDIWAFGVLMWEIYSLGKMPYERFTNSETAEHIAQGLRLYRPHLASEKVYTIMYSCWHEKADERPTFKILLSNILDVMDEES
T2 sequence (P41240 whole entry): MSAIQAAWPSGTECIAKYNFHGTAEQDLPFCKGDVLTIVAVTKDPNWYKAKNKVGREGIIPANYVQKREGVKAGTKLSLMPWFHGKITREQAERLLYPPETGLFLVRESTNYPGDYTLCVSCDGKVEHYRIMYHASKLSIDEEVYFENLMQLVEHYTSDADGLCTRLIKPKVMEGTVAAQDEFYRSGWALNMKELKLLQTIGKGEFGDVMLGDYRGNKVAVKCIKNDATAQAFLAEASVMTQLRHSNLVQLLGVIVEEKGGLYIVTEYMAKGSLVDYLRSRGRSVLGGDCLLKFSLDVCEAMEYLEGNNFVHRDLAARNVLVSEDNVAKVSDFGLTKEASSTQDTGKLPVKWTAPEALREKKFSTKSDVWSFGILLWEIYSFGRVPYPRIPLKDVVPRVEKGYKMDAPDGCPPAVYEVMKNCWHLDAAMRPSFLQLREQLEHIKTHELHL
T5 sequence (P12931 whole entry): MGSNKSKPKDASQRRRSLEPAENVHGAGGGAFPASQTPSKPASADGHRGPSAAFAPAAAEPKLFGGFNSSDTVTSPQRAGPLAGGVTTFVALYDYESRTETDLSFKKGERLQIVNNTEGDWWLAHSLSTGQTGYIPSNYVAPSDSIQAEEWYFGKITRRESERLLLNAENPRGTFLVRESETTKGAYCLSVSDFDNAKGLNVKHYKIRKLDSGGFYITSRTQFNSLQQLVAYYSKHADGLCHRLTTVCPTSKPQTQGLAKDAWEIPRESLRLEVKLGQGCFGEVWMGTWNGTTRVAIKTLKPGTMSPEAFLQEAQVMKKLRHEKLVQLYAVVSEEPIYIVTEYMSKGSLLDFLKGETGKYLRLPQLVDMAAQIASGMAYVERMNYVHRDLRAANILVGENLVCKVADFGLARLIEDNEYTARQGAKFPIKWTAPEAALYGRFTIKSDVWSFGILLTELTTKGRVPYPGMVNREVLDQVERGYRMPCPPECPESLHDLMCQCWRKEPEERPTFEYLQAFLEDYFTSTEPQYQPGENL

COc1cccc(Sc2nc(/C=C/c3ccccc3OC)nc3cc(Cl)ccc23)c1 [IS13, 2-[(E)-2–(2-methoxyphenyl)ethenyl]-7-chloro-4–(3-methoxyphenylthio)quinazoline]
inhibition at 0.5 µM [1]: 0%
inhibition at 0.5 µM [2]: 0%
inhibition at 0.5 µM [3]: 0%
inhibition at 0.5 µM [4]: 0%
inhibition at 0.5 µM [5]: 0%
inhibition at 0.5 µM [6]: 0%
IC50 [7]: > 25 µM
IC50 [8]: > 25 µM
IC50 [9]: > 25 µM
IC50 [10]: > 25 µM
IC50 [11]: > 25 µM
IC50 [12]: > 25 µM
inhibition at 0.5 µM [13]: 0%
inhibition at 0.5 µM [14]: 0%

COc1ccccc1/C=C/c1nc(Sc2cc3c(cc2Br)OCO3)c2ccccc2n1 [IS11, 5-{2-[(E)-2–(2-methoxyphenyl)ethenyl]quinazolin-4-ylthio}-6-bromo-2H-1,3-benzodioxole]
inhibition at 0.5 µM [1]: 2.87 ± 0.67%
inhibition at 0.5 µM [2]: 50.7 ± 5.6%
inhibition at 0.5 µM [3]: 0%
inhibition at 0.5 µM [4]: 0.86 ± 0.23%
IC50 [15]: 21.7 ± 1.53 µM
inhibition at 0.5 µM [5]: 40.9 ± 1.77%
inhibition at 0.5 µM [6]: 19.1 ± 3.57%
IC50 [7]: > 15 µM
IC50 [16]: > 10 µM
IC50 [9]: > 5 µM
IC50 [10]: > 15 µM
IC50 [11]: > 2.5 µM
IC50 [12]: > 5 µM
inhibition at 0.5 µM [13]: 0%
Inhibition of tyrosine kinase activity [%] ABL ([14]; 0.5 μM): inactive
inhibition at 0.5 µM [14]: 18.4 ± 2.37%

COc1ccc(/C=C/c2nc(NCCCN(C)C)c3ccccc3n2)cc1 [CP-31398, N'-[2-[2–(4-methoxyphenyl)ethenyl]-4-quinazolinyl]-N,N-dimethyl-1,3-propanediamine dihydrochloride, reference compound]
inhibition at 0.5 µM [1]: 36.8 ± 3.66%
IC50 [15]: 12.3 ± 0.54 µM
inhibition at 0.5 µM [6]: 30.6 ± 7.83%
IC50 [7]: 26.3 ± 1.41 µM
IC50 [8]: 27 ± 2.1 µM
IC50 [16]: > 25 µM
IC50 [9]: > 25 µM
IC50 [10]: 18.6 ± 0.92 µM
IC50 [11]: 3.09 ± 0.36 µM
IC50 [12]: 18.8 ± 1.65 µM

COc1ccccc1/C=C/c1nc(Sc2cc(Cl)ccc2Cl)c2ccccc2n1 [IS3, 2-[(E)-2–(2-methoxyphenyl)ethenyl]-4–(2,5-dichlorophenylthio)quinazoline]
inhibition at 0.5 µM [1]: 31.6 ± 2.38%
inhibition at 0.5 µM [2]: 35 ± 1.11%
inhibition at 0.5 µM [3]: 0%
inhibition at 0.5 µM [4]: 26.2 ± 1.55%
inhibition at 0.5 µM [5]: 0%
inhibition at 0.5 µM [6]: 60 ± 2.85%
IC50 [7]: > 25 µM
IC50 [8]: > 25 µM
IC50 [10]: > 25 µM
IC50 [11]: > 25 µM
inhibition at 0.5 µM [13]: 13.4 ± 5.58%
inhibition at 0.5 µM [14]: 4.02 ± 3.58%

COc1ccccc1/C=C/c1nc(Sc2ccccc2Cl)c2ccc(Cl)cc2n1 [IS12, 2-[(E)-2–(2-methoxyphenyl)ethenyl]-7-chloro-4–(2-chlorophenylthio)quinazoline]
inhibition at 0.5 µM [1]: 15.4 ± 4.19%
inhibition at 0.5 µM [2]: 0%
inhibition at 0.5 µM [3]: 0%
inhibition at 0.5 µM [4]: 0%
inhibition at 0.5 µM [5]: 0%
inhibition at 0.5 µM [6]: 0%
IC50 [7]: > 25 µM
IC50 [8]: > 25 µM
IC50 [9]: > 25 µM
IC50 [10]: > 25 µM
IC50 [11]: > 25 µM
IC50 [12]: > 25 µM
inhibition at 0.5 µM [13]: 0%
inhibition at 0.5 µM [14]: 0%

COc1ccc(/C=C/c2nc(Sc3ccccc3Cl)c3ccccc3n2)cc1 [IS18, 2-[(E)-2–(4-methoxyphenyl)ethenyl]-4–(2-chlorophenylthio)quinazoline]
inhibition at 0.5 µM [2]: 0%
inhibition at 0.5 µM [4]: 13.8 ± 1%
inhibition at 0.5 µM [5]: 26.1 ± 6.03%
inhibition at 0.5 µM [6]: 17.3 ± 4.47%
IC50 [8]: 10.6 ± 1.38 µM
IC50 [16]: 12 ± 1.2 µM
IC50 [10]: 11.1 ± 1.37 µM
IC50 [11]: > 25 µM
IC50 [12]: 10.3 ± 0.818 µM
inhibition at 0.5 µM [13]: 66.5 ± 7.49%
inhibition at 0.5 µM [14]: 11.7 ± 4.03%

COc1ccccc1/C=C/c1nc(Sc2ccccc2C(F)(F)F)c2ccccc2n1 [IS6, 2-[(E)-2–(2-methoxyphenyl)ethenyl]-4-[2-(trifluoromethyl)phenylthio]quinazoline]
inhibition at 0.5 µM [2]: 0%
inhibition at 0.5 µM [4]: 1.39 ± 0.41%
inhibition at 0.5 µM [5]: 43.8 ± 9.07%
inhibition at 0.5 µM [6]: 26.1 ± 8.39%
IC50 [8]: > 25 µM
IC50 [16]: > 25 µM
IC50 [10]: > 25 µM
IC50 [11]: > 25 µM
IC50 [12]: > 25 µM
inhibition at 0.5 µM [13]: 0%
inhibition at 0.5 µM [14]: 1.18 ± 0.17%

Cc1nc(Nc2ncc(C(=O)Nc3c(C)cccc3Cl)s2)cc(N2CCN(CCO)CC2)n1 [Dasatinib, dasatinib, reference compound]
inhibition at 0.5 µM [2]: 94.2 ± 1.28%
inhibition at 0.5 µM [4]: 97.5 ± 1.49%
inhibition at 0.5 µM [6]: 92.3 ± 2.55%

COc1ccccc1/C=C/c1nc(Sc2ccccc2F)c2ccccc2n1 [IS5, 2-[(E)-2–(2-methoxyphenyl)ethenyl]-4–(2-fluorophenylthio)quinazoline]
inhibition at 0.5 µM [2]: 23.1 ± 5.24%
inhibition at 0.5 µM [4]: 7.67 ± 3.28%
inhibition at 0.5 µM [5]: 28.2 ± 5.41%
inhibition at 0.5 µM [6]: 3.77 ± 1.21%
IC50 [8]: > 25 µM
IC50 [16]: > 25 µM
IC50 [10]: > 25 µM
IC50 [11]: > 25 µM
IC50 [12]: > 25 µM
inhibition at 0.5 µM [13]: 37 ± 7.87%
inhibition at 0.5 µM [14]: 18.5 ± 1.59%

COc1ccccc1/C=C/c1nc(Sc2cccc(Cl)c2)c2ccccc2n1 [IS2, 2-[(E)-2–(2-methoxyphenyl)ethenyl]-4–(3-chlorophenylthio)quinazoline]
inhibition at 0.5 µM [2]: 62.1 ± 4.45%
inhibition at 0.5 µM [4]: 38.4 ± 8.58%
Inhibition of tyrosine kinase activity [%] Src ([5]; 0.5 μM): 58.56 ± 4.80%
inhibition at 0.5 µM [5]: 58%
Inhibition of tyrosine kinase activity [%] Fyn A ([6]; 0.5 μM): 52.32 ± 7.04%
inhibition at 0.5 µM [6]: 52%
IC50 [8]: 19.7 ± 1.13 µM
IC50 [16]: 25.1 ± 1.44 µM
IC50 [10]: 23.8 ± 5.32 µM
IC50 [11]: 24.8 ± 2.45 µM
IC50 [12]: > 25 µM
Inhibition of tyrosine kinase activity [%] Lck ([13]; 0.5 μM): 73.92 ± 9.72%
inhibition at 0.5 µM [13]: ~74%
inhibition at 0.5 µM [14]: 25.2 ± 3.69%

COc1ccccc1/C=C/c1nc(Sc2ccccn2)c2ccc(Cl)cc2n1 [IS14, 2-[(E)-2–(2-methoxyphenyl)ethenyl]-7-chloro-4-(pyrid-2-ylthio)quinazoline]
inhibition at 0.5 µM [2]: 0%
inhibition at 0.5 µM [4]: 0%
inhibition at 0.5 µM [5]: 40.5 ± 9.17%
inhibition at 0.5 µM [6]: 16 ± 7.94%
IC50 [8]: > 25 µM
IC50 [16]: > 25 µM
IC50 [10]: > 25 µM
IC50 [11]: 21.6 ± 2.1 µM
IC50 [12]: > 25 µM
inhibition at 0.5 µM [13]: 14.8 ± 6.02%
inhibition at 0.5 µM [14]: 7.64 ± 0.7%

Source: paper PMC10120462, “Styrylquinazoline derivatives as ABL inhibitors selective for different DFG orientations” (Journal of Enzyme Inhibition and Medicinal Chemistry, 2023)
